This assay relates to NA (H275Y), OSV-resistant mutant of influenza H1N1 (A/California/04/2009). Type of assay: biochemical, influenza A virus.

The text below walks through data of PMC7113773 (Antiviral Research, 2014).

The structures appear in SMILES notation.

Regarding `Cc1cc2c(c(=S)[nH]1)C(=O)O/C2=C\c1c[nH]c2ccc(F)cc12` [Compound 15a, (Z)-1-((5-Fluoro-1H-indol-3-yl)methylene)-6-methyl-4-thioxo-4,5-dihydrofuro[3,4-c]pyridin-3(1H)-one], the “function of oseltamivir-resistant NA (H275Y)” value is “suppressed”.
